Experimental data as given in paper PMC6930480, “Inhibition of Porcine Aminopeptidase M (pAMP) by the Pentapeptide Microginins” (Molecules, 2019).
Peptide text beside a SMILES is read from it.

Biological target: T1, porcine aminopeptidase M (EC 3.4.11.2) (Sus scrofa, UniProt P15145)
T1 construct: purchased Sigma Aldrich; host or cells: pig kidney (tissue-derived)
T1 sequence (P15145 1-963): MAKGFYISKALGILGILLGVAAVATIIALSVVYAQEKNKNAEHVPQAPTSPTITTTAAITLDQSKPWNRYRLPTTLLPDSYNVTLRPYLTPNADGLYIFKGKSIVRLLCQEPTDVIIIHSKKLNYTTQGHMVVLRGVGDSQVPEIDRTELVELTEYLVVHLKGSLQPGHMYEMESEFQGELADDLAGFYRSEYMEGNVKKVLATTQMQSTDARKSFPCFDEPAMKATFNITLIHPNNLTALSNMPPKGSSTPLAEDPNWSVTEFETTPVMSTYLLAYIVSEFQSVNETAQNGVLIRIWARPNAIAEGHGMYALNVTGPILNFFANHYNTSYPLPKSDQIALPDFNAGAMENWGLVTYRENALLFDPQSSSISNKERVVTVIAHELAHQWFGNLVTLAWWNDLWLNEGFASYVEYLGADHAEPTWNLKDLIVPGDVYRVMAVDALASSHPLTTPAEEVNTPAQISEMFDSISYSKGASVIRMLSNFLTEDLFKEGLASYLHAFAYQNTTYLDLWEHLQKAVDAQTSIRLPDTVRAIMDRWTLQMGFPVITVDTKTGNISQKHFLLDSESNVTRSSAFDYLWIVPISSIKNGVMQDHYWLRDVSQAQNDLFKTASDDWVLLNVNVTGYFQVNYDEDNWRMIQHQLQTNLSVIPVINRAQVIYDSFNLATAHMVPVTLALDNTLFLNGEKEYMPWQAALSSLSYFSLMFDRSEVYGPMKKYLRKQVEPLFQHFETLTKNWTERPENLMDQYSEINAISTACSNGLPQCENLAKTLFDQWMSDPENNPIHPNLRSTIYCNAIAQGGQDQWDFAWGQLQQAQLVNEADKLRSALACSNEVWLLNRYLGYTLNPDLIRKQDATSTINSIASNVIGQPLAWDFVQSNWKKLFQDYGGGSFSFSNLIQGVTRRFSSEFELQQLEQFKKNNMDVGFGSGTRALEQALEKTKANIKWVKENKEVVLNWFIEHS
Assay: Aminopeptidase M inhibition, spectrophotometric, L-leucine-p-nitroanilide substrate
Format: biochemical
Conditions: porcine AMP from pig kidney, 1 mU mL^-1; 0.1 M borate buffer pH 8.0; 30 min pre-incubation at 30 °C; inhibitor 0.1-10 μM; L-leucine-p-nitroanilide 1.2 mM; absorbance 405 nm; triplicate, average of three independent experiments
Method: Inhibition assay spectrophotometrically performed using porcine aminopeptidase M (EC 3.4.11.2, from pig kidney—Sigma Aldrich®). After 30 min pre-incubation at 30 °C, 5 μL of the commercial aminopeptidase M enzyme (1 mU mL^−1) added to microginin solutions (concentrations of 0.1, 0.25, 0.5, 1, 5 and 10 μM). […] The final volume at the 96-well plates was 75 μL (medium composed of 0.1 M borate buffer, Ph 8.0). After 30 min pre-incubation, 30 μL of the L-leucine-p-nitroanilide substrate at the concentration of 1.2 mM were added for the microginins AMP inhibition assays. The kinetics of inhibition of AMP were determined and the reaction interrupted with the addition of 25 μL of 30% acetic acid solution.
To obtain the factor used for the calculation of specific activity, a standard curve was performed with the product of the reaction (p-nitroanilide 1 mM), obtaining the slope of the curve. Absorbance reading was performed on the Spectra Max M2-Molecular Devices® 96-well plate reader with SoftMax Pro® software version 5.3, and the p-nitroanilide product concentrations were determined by the millimolar extinction coefficient at 405 nm as 9.96 (Sigma-Aldrich). After reading the samples, the residual activity calculations performed in mU mL^−1, percentage of activity and inhibition. […]

CCCCCCC[C@@H](NC)[C@H](O)C(=O)N[C@H](C(=O)N[C@@H](CC(C)C)C(=O)N[C@@H](CCc1ccc(O)cc1)C(=O)N[C@@H](Cc1ccc(O)cc1)C(=O)O)C(C)C [MG770, N-Me-Ahda-Val-Leu-HTy-Tyr] (HELM PEPTIDE1{[CCCCCCC[C@@H](NC)[C@H](O)C(=O)[*:2]].V.L.[O=C([C@H](CCc1ccc(O)cc1)N[*:1])[*:2]].Y}$$$$V2.0)
IC50: 1.2 ± 0.1 µM

CCCCCCC[C@@H](N)[C@H](O)C(=O)N[C@H](C(=O)N[C@@H](CC(C)C)C(=O)N[C@@H](CCc1ccc(O)cc1)C(=O)N[C@@H](Cc1ccc(O)cc1)C(=O)O)C(C)C [MG756, Ahda-Val-Leu-HTy-Tyr] (HELM PEPTIDE1{[CCCCCCC[C@@H](N)[C@H](O)C(=O)[*:2]].V.L.[O=C([C@H](CCc1ccc(O)cc1)N[*:1])[*:2]].Y}$$$$V2.0)
IC50: 3.26 ± 0.5 µM
